Reference: patent US20050153943A1, “Methods of simultaneously treating mucositis and fungal infection” (priority 2002, published 2005)
Converted amounts (≈) assume the structure as drawn. Counter-ions that a name gives are not always drawn. Marks after values point to notes of the source that are not given here.

How the values were obtained:
[1] = system: 11 different species of fungi; assay: Summary of Example 40 over the whole panel; format: cell-based; details: 11 tested fungi, up to 4.00 μg/ml
Procedure: (§1) Each drug was dissolved in DMSO (1.0 mg/ml) as a stock solution and stored at −20° C. Just prior to use, each stock solution was thawed and diluted in DMSO to produce 6 different 100× concentrations. Potato dextrose agar was dissolved in distilled water (39 g/L) and sterilized at […] (250° F.) for 15 min. The agar solution was mixed with each drug (in a water bath at 60° C.) to make a series of final concentrations, i.e. 0.00, 0.25, 0.50, 1.00, 2.00, 4.00 μg/ml. The mixtures were then transferred to 24-well plates (1 ml/well). After the gel had formed, the fungus in PBS (spore count=1-5×10^4/ml) was inoculated by pipetting 10 μl onto each gel. The plates were incubated at 30° C. for different times, depending on the requirement of each species, e.g. 24 hours for Penicillium, Rhizopus, Tricothecium, Ulocladium, Absidia, Aspergilus, Caindida, Cunninghamella, 3 days for Scedosporium, and 5 days for Fonsecae and Phialophora.
(§2) “*” indicates better than or similar results to Amphotericin B. “NI” indicates no detectable inhibition.

[2] = Toxicity in vivo (statement); details: at 2.0 μg/ml concentration; unlike AmB
[3] = system: eleven different species of fungi; details: cited from earlier work
Penicillium Species = assay: IC50 and MIC on microplate agar gels (Example 40); format: cell-based; details: agar gel, 0.25-4.00 μg/ml, 30° C., 24 hours; NI = no detectable inhibition
Procedure: as §1, §2

Ulocladium Species = assay: IC50 and MIC on microplate agar gels (Example 40); format: cell-based; details: agar gel, 0.25-4.00 μg/ml, 30° C., 24 hours; NI = no detectable inhibition
Procedure: as §1, §2

Phialophora Verrucosa = assay: IC50 and MIC on microplate agar gels (Example 40); format: cell-based; details: agar gel, 0.25-4.00 μg/ml, 30° C., 5 days; NI = no detectable inhibition
Procedure: as §1, §2

Candida Albicans = assay: IC50 and MIC on microplate agar gels (Example 40); format: cell-based; details: agar gel, 0.25-4.00 μg/ml, 30° C., 24 hours; NI = no detectable inhibition
Procedure: as §1, §2

Cunninghamella Species = assay: IC50 and MIC on microplate agar gels (Example 40); format: cell-based; details: agar gel, 0.25-4.00 μg/ml, 30° C., 24 hours; NI = no detectable inhibition
Procedure: as §1, §2

Fonsecae Species = assay: IC50 and MIC on microplate agar gels (Example 40); format: cell-based; details: agar gel, 0.25-4.00 μg/ml, 30° C., 5 days; NI = no detectable inhibition
Procedure: as §1, §2

Aspergilus Fumigatus = assay: IC50 and MIC on microplate agar gels (Example 40); format: cell-based; details: agar gel, 0.25-4.00 μg/ml, 30° C., 24 hours; NI = no detectable inhibition
Procedure: as §1, §2

Scedosporium Apiospermum = assay: IC50 and MIC on microplate agar gels (Example 40); format: cell-based; details: agar gel, 0.25-4.00 μg/ml, 30° C., 3 days; NI = no detectable inhibition
Procedure: as §1, §2

Absidia Species = assay: IC50 and MIC on microplate agar gels (Example 40); format: cell-based; details: agar gel, 0.25-4.00 μg/ml, 30° C., 24 hours; NI = no detectable inhibition
Procedure: as §1, §2

Tricothecium Species = assay: IC50 and MIC on microplate agar gels (Example 40); format: cell-based; details: agar gel, 0.25-4.00 μg/ml, 30° C., 24 hours; NI = no detectable inhibition
Procedure: as §1, §2

Rhizopus Species = assay: IC50 and MIC on microplate agar gels (Example 40); format: cell-based; details: agar gel, 0.25-4.00 μg/ml, 30° C., 24 hours; NI = no detectable inhibition
Procedure: as §1, §2

Penicillium spores = assay: Fungistatic or fungicidal activity: pre-treatment of spores, dilution, regrowth on agar (Example 41); format: cell-based
Procedure: In the pre-treatment phase of the experiment, Penicillium spores were suspended in PBS to achieve a spore count of 10^7/ml. CMT-3 and Amphotericin B were dissolved in DMSO to reach a concentration of 1.0 mg/ml as stock solutions. 10 or 50 μl aliquots of these stock solutions were added to the incubation mixture (containing 1.0 ml of 10^7/ml of Penicillium spores in PBS) to achieve a final concentration of 10 μg/ml or 50 μg/ml, respectively, for both drugs. The various incubations of Penicillium were carried out for 24 hours at 30° C.
After the pre-treatment phase, the reaction mixtures were diluted 1000 times with PBS, reducing the concentration of both drugs to 0.01 μg/ml or 0.05 μg/ml, and reducing the Penicillium spore count to 10^4/ml. These drug concentrations of both CMT-3 and Amphotericin B would not be expected to inhibit the growth of the viable Penicillium spores.
Controls were then prepared. Before incubation, each tube was either not diluted further, or diluted to ½ or ¼ with PBS to produce tubes with three different spore counts, ie, 10^4/ml, or 0.5×10^4/ml, or 0.25×10^4/ml. These cultures were then inoculated on potato dextrose agar gels in 24-well plates, and incubated at 30° C. for 48 hours to determine the rate of growth of the fungus as described before.
The controls were prepared from the suspension in the pre-treatment phase containing only Penicillium spores 10^7/ml, and PBS. This control was diluted by 1000 times with PBS to produce a spore count of 10^4/ml. 1.0 ml of this diluted spore suspension was added to eight tubes. The stock solutions of CMT-3 and Amphotericin B, and DMSO were also diluted by 1000 times with PBS (the new concentration being 1.0 μg/ml for both drugs and 0.1% for DMSO), and 10 or 50 μl of these solutions was added into the above tubes. The final concentrations in each tube was either 0.01 μg/ml or 0.05 μg/ml for both drugs (CMT-3 or AmB), or 0.001% or 0.005% for DMSO. These tubes were further treated as described above to determine the growth of the fungus as controls.

Aspergillus f. [4] = assay: Direct comparison of CMT-3 and Amphotericin B, agar plates (Example 39); format: cell-based
Rhizopus sp. = assay: Fungal growth on SABHI agar containing CMT (Example 38); format: cell-based; details: 25 μg/ml agar, Example 38
In short: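 Spore/cell suspensions (0.5 McFarland, diluted 1:100 in saline; 10 μl inoculum) plated on SABHI agar pH 7.0 containing CMT, DMSO-only plates as control. Growth scored after aerobic incubation at 30° C for 24 h and 48 h.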

Aspergillus f. [5] = assay: Direct comparison of CMT-3 and Amphotericin B, agar plates (Example 39); format: cell-based; remark: listed apart in the source
Procedure: The plates were prepared as described above, using […], 0.50, 1.00 and 2.00 concentrations of each of the drugs tested. DMSO was used as a control

[6] = single dose of two 100 mg minocycline HCl tablets; cited from earlier work
[7] = 250 mg every six hours over a twenty-four hour period; cited from earlier work

## NC(=O)C1=C(O)C[C@@H]2C[C@@H]3Cc4cccc(O)c4C(=O)C3=C(O)[C@]2(O)C1=O [COL 3, 6-demethyl-6-deoxy-4-dedimethylaminotetracycline]
[1]
  Antifungal activity over the panel (summary in words): effective on all 11 tested fungi
[2]
  Toxicity in vivo: very little toxicity
[3]
  Anti-fungal activity in vitro (Lu et al.): anti-fungal activity with eight of the eleven species
Penicillium Species
  IC50: 0.2 µg/mL (≈ 0.539 µM)
  MIC: 0.5 µg/mL (≈ 1.35 µM)
Ulocladium Species
  IC50: 0.25 µg/mL (≈ 0.673 µM)
  MIC: 1.0* μg/ml
Phialophora Verrucosa
  IC50: 1.5 µg/mL (≈ 4.04 µM)
  MIC: 4.0* μg/ml
Candida Albicans
  IC50: 1.0 µg/mL (≈ 2.69 µM)
  MIC: 2.0 µg/mL (≈ 5.39 µM)
Cunninghamella Species
  IC50: 2.0 µg/mL (≈ 5.39 µM)
  MIC: 4.0* μg/ml
Fonsecae Species
  IC50: 1.0 µg/mL (≈ 2.69 µM)
  MIC: 4.0* μg/ml
Aspergilus Fumigatus
  IC50: 0.5 µg/mL (≈ 1.35 µM)
  MIC: 1.0* μg/ml
Scedosporium Apiospermum
  IC50: 0.2 µg/mL (≈ 0.539 µM)
  MIC: 1.5* μg/ml
Absidia Species
  IC50: 1.5 µg/mL (≈ 4.04 µM)
  MIC: 4.0* μg/ml
Tricothecium Species
  IC50: 0.2 µg/mL (≈ 0.539 µM)
  MIC: 1.5* μg/ml
Rhizopus Species
  IC50: 0.8 µg/mL (≈ 2.15 µM)
  MIC: 2.0 µg/mL (≈ 5.39 µM)
Penicillium spores; 0.01 and 0.05 μl/ml, no pre-treatment
  Growth rate of Penicillium in control cultures with low drug concentration: did not inhibit the growth
Penicillium spores; against Penicillium
  Type of antifungal activity (fungistatic or fungicidal): fungicidal
Penicillium spores; pretreatment with 10 and 50 μl/ml for 24 hours at 30° C., diluted 1000 times, 48 hours on agar
  Growth of Penicillium on agar gels after pretreatment of spores: little or no growth
Aspergillus f. [4]
  Growth grade at Conc. 0.25 μg/ml: 2 (50% reduction in growth of colonies compared to control.)
Rhizopus sp.
  Anti-fungal activity (summary in words): inhibited
Aspergillus f. [5]; 0.125 μg/ml
  Growth grade at Conc. 0.125 μg/ml: 4 (Level of growth in the absence of anti-fungal agent (control).)
Aspergillus f. [5]; 0.50 μg/ml
  Growth grade at Conc. 0.50 μg/ml: 1 (75% reduction in growth in colonies compared to control.)
Aspergillus f. [5]; 1.0 μg/ml
  Fungal growth inhibited: 95%
Aspergillus f. [5]; 2.0 μg/ml
  Fungal growth inhibited: 100%
Aspergillus f. [5]; 2.00 μg/ml
  Growth grade at Conc. 2.00 μg/ml: 0 (complete inhibition of growth.)

## CN(C)c1ccc(O)c2c1C[C@H]1C[C@H]3[C@H](N(C)C)C(O)=C(C(N)=O)C(=O)[C@@]3(O)C(O)=C1C2=O [minocycline HCl]
[6]
  average minocycline serum level: 2.24 µg/mL

## CN(C)[C@@H]1C(O)=C(C(N)=O)C(=O)[C@@]2(O)C(O)=C3C(=O)c4c(O)cccc4[C@@](C)(O)[C@H]3C[C@@H]12 [tetracycline HCl]
[7]
  peak plasma concentration: approximately 3 μg/ml
